One data set deals with Acetylcholinesterase (Electrophorus electricus, UniProt O42275). Put plainly: Inhibition of electric eel AChE using acetylthiocholine iodide as substrate preincubated for 5 mins followed by substrate addition measured after 2 mins by modified Ellman assay. A general note: DTNB colorimetry detects thiols as they appear.
The target of the next data set is Cholinesterase (Equus caballus, UniProt P81908). Put plainly: Inhibition of equine serum BChE using butyrylthiocholine iodide as substrate preincubated for 5 mins followed by substrate addition measured after 2 mins by modified Ellman assay.
Data set [1] can be described thus: Selectivity index, ratio of IC50 for electric eel AChE to IC50 for equine serum BChE.
The target in data set [2] is Indoleamine 2,3-dioxygenase 1 (Homo sapiens, UniProt P14902). Put plainly: Inhibition of human recombinant IDO1 using L-tryptophan as substrate after 30 mins by fluorimetric analysis.
Data set [3] deals with Mus musculus. Put plainly: Reversal of scopolamine-induced cognitive function impairment in ICR mouse assessed as escape latency time at 15 mg/kg, po dosed 30 mins prior to scopolamine treatment by Morris water maze test (reference value: 40.5 sec). It is filed as functional.
Data set [4] relates to Mus musculus. The experiment in a line: Hepatotoxicity in ICR mouse assessed as serum ALT level at 15 mg/kg, ig after 8 hrs. The settings on record: in vivo, po. Type of data set: toxicity, organism-based.
The subject of data set [5] is Mus musculus. Put plainly: Hepatotoxicity in ICR mouse assessed as serum ALT level at 15 mg/kg, ig after 22 hrs. It is filed as toxicity, organism-based. The conditions noted are these: in vivo, po.
The test system of data set [6] is Mus musculus. The experiment in a line: Hepatotoxicity in ICR mouse assessed as serum ALT level at 15 mg/kg, ig after 36 hrs. The settings on record: in vivo, po. Type of data set: toxicity, organism-based.
Data set [7] has as its system Mus musculus. Put plainly: Hepatotoxicity in ICR mouse assessed as serum AST level at 15 mg/kg, ig after 8 hrs. It is filed as toxicity, organism-based. The settings on record: in vivo, po.
The subject of data set [8] is Mus musculus. Put plainly: Hepatotoxicity in ICR mouse assessed as serum AST level at 15 mg/kg, ig after 22 hrs. The conditions noted are these: in vivo, po. It is filed as toxicity, organism-based.
In data set [9] the test system is Mus musculus. The experiment in a line: Hepatotoxicity in ICR mouse assessed as serum AST level at 15 mg/kg, ig after 36 hrs. The settings on record: in vivo, po. Type of data set: toxicity, organism-based.
Data set [10] deals with Mus musculus. The experiment in a line: Hepatotoxicity in ICR mouse assessed as pericentral necrosis of hepatocytes surrounding intermediate and periportal zones at 15 mg/kg, ig after 30 hrs by hematoxylin and eosin staining-based assay. Type of data set: toxicity, organism-based. The conditions noted are these: in vivo, po.
Data set [11] deals with Mus musculus. Put plainly: Hepatotoxicity in ICR mouse assessed as fatty degeneration of hepatocytes surrounding intermediate and periportal zones at 15 mg/kg, ig after 30 hrs by hematoxylin and eosin staining-based assay. Type of data set: toxicity, organism-based. The settings on record: in vivo, po.

Sequence of Cholinesterase (P81908 whole entry): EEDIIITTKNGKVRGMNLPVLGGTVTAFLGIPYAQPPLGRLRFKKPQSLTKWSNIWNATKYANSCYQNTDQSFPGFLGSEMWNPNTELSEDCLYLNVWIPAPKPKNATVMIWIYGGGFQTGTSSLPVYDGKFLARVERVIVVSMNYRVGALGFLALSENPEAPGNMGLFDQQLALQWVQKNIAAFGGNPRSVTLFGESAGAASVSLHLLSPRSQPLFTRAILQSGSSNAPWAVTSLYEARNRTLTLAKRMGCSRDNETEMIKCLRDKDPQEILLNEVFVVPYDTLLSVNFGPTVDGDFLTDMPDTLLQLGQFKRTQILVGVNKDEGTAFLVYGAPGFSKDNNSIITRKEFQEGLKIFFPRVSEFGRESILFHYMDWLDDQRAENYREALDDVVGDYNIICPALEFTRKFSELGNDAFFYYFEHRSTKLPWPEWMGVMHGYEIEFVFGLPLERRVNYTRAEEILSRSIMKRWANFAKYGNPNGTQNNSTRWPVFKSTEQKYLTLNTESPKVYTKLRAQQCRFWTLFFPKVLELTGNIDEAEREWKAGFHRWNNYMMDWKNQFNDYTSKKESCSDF
Sequence of Acetylcholinesterase (O42275 whole entry): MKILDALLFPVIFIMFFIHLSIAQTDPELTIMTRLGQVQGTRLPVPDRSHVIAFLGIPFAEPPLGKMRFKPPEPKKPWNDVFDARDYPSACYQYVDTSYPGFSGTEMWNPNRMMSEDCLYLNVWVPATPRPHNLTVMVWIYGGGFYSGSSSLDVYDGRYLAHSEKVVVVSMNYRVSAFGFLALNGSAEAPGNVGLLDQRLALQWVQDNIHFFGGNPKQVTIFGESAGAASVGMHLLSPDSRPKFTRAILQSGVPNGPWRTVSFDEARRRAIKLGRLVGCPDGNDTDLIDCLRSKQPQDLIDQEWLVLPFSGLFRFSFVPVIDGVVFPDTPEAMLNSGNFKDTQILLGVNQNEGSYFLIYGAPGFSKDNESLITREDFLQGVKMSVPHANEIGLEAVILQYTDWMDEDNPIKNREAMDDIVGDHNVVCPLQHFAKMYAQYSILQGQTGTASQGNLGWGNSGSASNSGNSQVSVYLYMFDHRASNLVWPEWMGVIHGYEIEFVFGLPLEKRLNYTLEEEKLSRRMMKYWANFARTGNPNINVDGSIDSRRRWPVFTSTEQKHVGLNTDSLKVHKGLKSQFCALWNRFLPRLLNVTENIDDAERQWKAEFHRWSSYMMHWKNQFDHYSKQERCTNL
Sequence of Indoleamine 2,3-dioxygenase 1 (P14902 whole entry): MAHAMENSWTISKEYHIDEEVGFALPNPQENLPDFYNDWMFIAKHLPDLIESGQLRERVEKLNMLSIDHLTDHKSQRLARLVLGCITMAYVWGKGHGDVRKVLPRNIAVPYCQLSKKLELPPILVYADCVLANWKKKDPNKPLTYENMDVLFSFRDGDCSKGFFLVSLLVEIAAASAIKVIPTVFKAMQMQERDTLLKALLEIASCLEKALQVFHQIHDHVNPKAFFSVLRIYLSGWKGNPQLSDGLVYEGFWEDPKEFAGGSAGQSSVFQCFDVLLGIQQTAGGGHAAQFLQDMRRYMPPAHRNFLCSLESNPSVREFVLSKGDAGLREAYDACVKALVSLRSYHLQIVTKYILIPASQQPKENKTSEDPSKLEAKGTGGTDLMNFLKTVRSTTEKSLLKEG

`COc1cccc(COC(Cn2ccnc2)c2ccc(Cl)cc2Cl)c1` (centres undefined): the IC50 at Acetylcholinesterase was 81.3 µM; at Cholinesterase, 8.3 µM; in data set [2] it was 2.8 µM. Further, in [1], the Ratio IC50 was found to be 9.9. For the same compound, the Time in the data set on Mus musculus [3] turned out to be 19.7 s. For the same compound, the Activity entry in the data set with Mus musculus [4], in the data set with Mus musculus [5], in the data set on Mus musculus [6], in the data set with Mus musculus [7], with Mus musculus [8] and in the data set with Mus musculus [9] was “Non-Toxic” throughout. Moreover, the Activity result with Mus musculus [10] and in the data set with Mus musculus [11] was “Non-Toxic” each time.

`Cc1cccc(COC(Cn2ccnc2)c2ccc(Cl)cc2Cl)c1` (centres undefined): the IC50 against Acetylcholinesterase stood at 30.7 µM; against Cholinesterase, 14.6 µM; in data set [2], 1.2 µM. Further, in data set [1], the Ratio IC50 came out at 2.1.

Consider `Fc1ccc(COC(Cn2ccnc2)c2ccc(Cl)cc2Cl)cc1` (centres undefined), for which the IC50 is 33 µM at Acetylcholinesterase, 14.8 µM against Cholinesterase and 4 µM in [2]. Besides, the Ratio IC50 in data set [1] came to 2.3.

With `Cc1ccccc1COC(Cn1ccnc1)c1ccc(Cl)cc1Cl` (centres undefined), the IC50 is 37.5 µM on Acetylcholinesterase, 18.4 µM on Cholinesterase and 2.2 µM in data set [2]. Besides, the Ratio IC50 in data set [1] was determined as 2.

Take `Fc1cccc(F)c1COC(Cn1ccnc1)c1ccc(Cl)cc1Cl` (centres undefined): the IC50 on Acetylcholinesterase was determined as 176 µM; against Cholinesterase, 19.2 µM; in data set [2], 4.2 µM. The Ratio IC50 in [1] amounted to 9.2.

On to `COc1ccc(COC(Cn2ccnc2)c2ccc(Cl)cc2Cl)cc1` (centres undefined), for which the IC50 against Acetylcholinesterase came to 73.1 µM; against Cholinesterase, 16.5 µM; in data set [2], 1 µM. Also, in data set [1], the Ratio IC50 stood at 4.4. Further, in the data set with Mus musculus [3], the Time amounted to 13.4 s. In addition, the Activity entry with Mus musculus [4], in the data set with Mus musculus [5], in the data set on Mus musculus [6], with Mus musculus [7], in the data set on Mus musculus [8] and with Mus musculus [9] was “Non-Toxic” in each case. Moreover, the Activity entry with Mus musculus [10] and in the data set with Mus musculus [11] was “Non-Toxic” each time.

Regarding `Cc1ccc(COC(Cn2ccnc2)c2ccc(Cl)cc2Cl)cc1C` (centres undefined), the IC50 on Acetylcholinesterase stood at 17.3 µM; at Cholinesterase, 11.2 µM; in [2], 2.2 µM. Further, in data set [1], the Ratio IC50 came out at 1.6.

For `Clc1ccc(C(Cn2ccnc2)OCc2ccc(Br)cc2)c(Cl)c1` (centres undefined), the IC50 on Acetylcholinesterase was found to be 19.5 µM; against Cholinesterase it was 13.1 µM; in data set [2] it was 5.7 µM. For the same compound, the Ratio IC50 in data set [1] stood at 1.5.

With `Cc1ccc(COC(Cn2ccnc2)c2ccc(Cl)cc2Cl)cc1` (centres undefined), the IC50 against Acetylcholinesterase came to 26.9 µM; at Cholinesterase it was 10.9 µM; in [2], 2 µM. Also, the Ratio IC50 in [1] stood at 2.5.

Consider `Nc1c2c(nc3ccccc13)CCCC2` [TACRINE], for which, in the data set on Mus musculus [3], the Time came to 25.9 s.

For the compound `CC(C)(C)c1ccc(COC(Cn2ccnc2)c2ccc(Cl)cc2Cl)cc1` (centres undefined), the IC50 against Acetylcholinesterase came to 24.3 µM; against Cholinesterase, 46.3 µM; in data set [2] it was 4.4 µM. The Ratio IC50 in [1] worked out at 0.5.

For orientation: IC50 means the concentration needed to halve the response being measured.

(Values after ChEMBL document CHEMBL4219087, “Investigation of multi-target-directed ligands (MTDLs) with butyrylcholinesterase (BuChE) and indoleamine 2,3-dioxygenase 1 (IDO1) inhibition: The design, synthesis of miconazole analogues targeting Alzheimer's disease” (Bioorg Med Chem, 2018).)
